Values joined by “and” are separate entries in the source; they are usually repeats but may differ in a detail not shown here. Equal entries are not always repeated. Where two headings read alike, the source gives them in different places.
Experiments:
Stereotypien = assay: Induction of stereotypies in rats (Methode 3); format: in vivo; conditions: Methode 3, rat, p.o.; dose up to which no stereotypies were seen
From the text: Die Versuche wurden an Wistar-Ratten, männlich, 130-140 g durchgeführt. Die Stereotypien wurden in den ersten beiden Stunden nach Substanzgabe in 15-Minuten-Intervallen beurteilt, danach bis zur 6. Stunde in halbstündigen Intervallen. Die folgende Skala wurde benutzt.
Die Punktzahlen wurden errechnet alß Gesamtzahl pro 6 Stunden, dividiert durch die Zahl der Beobachtungen.
Der EDso-Wert ist die Dosis, bei der die Hälfte der maximal möglichen Punktzahl (5 Punkte multipliziert mit der Zahl der Beobachtungen) erreicht wird.

Yohimbin-Toxizität = assay: Potentiation of yohimbine toxicity in mice (Methode 2); format: in vivo, Maus; conditions: Methode 2, mouse; for LD50, mg/kg p.o.: 1 h before yohimbine hydrochloride 20 mg/kg s.c., deaths after 18 h
Procedure: Die Toxizität von Yohimbin, einem Blocker präsynaptischer alpha-Rezeptoren, wird durch Antidepressiva potenziert (Literatur R.M. Quinton, Brit. J. Pharmac. 21 , 55-56 (1963)). Männliche Mäuse, NMRI-Stamm, 20-22 g, wurden in Versuchsgruppen zu n = 10 zugeordnet. Das Prüfpräparat wurde in 1 %igem wäßrigen Tylose@-Schleim suspendiert und im Volumen 10 ml/kg oral gegeben. Kontrollen erhielten nur das Vehikel.
Nach einer Vorbehandlungszeit von 1 Stunde erhielten alle Tiere eine allein nicht toxische Dosis von Yohimbin-Hydrochlorid, 20 mg/kg subkutan. Die verstorbenen Tiere wurden 18 Stunden nach dieser Behandlung ermittelt. (Berechnung der LDso mit Probit-Analyse).

Tetrabenazin-Ptosis = assay: Effect on tetrabenazine ptosis (TBZ method, Methode 1); format: in vivo, Maus; conditions: for ED50: Mus musculus
Procedure: Sechs männl. Tieren wird die entsprechende Menge eines Homogenats der jeweiligen Substanz in wäßriger Carboxymethylcellulose oder Methyl-hydroxyethylcellulose 30 Min. vor der Behandlung mit Tetrabenazin (40 mg/kg intraperitoneal) mit Schlundsonde gefüttert. […]

[1] = tested on: Aufnahme von 14C-Noradrenalin in Synaptosomen; assay: Inhibition of noradrenaline reuptake in synaptosomes (Methode 4); format: biochemical, Ratte; conditions: 50 % inhibition of 14C-noradrenaline uptake, 37 °C, 4 min
Procedure: Synaptosomen aus Rattenhirn werden nach der Methode von Whittaker (Handbook of Neurochemistry 2 , 327-364, Editor A. Lajtha; London and New York, 1969) isoliert und die Monoamin-Aufnahme nach der Methode von Schacht und Heptner gemessen (Biochemical Pharmac. 23 , 3413-3422). Die 14C Noradrenalin-Aufnahme wurde in einem Krebs-Henseleit-Bikarbonatpuffer pH 7,4, der 11 Millimol Glucose enthielt, gemessen. 2,5 ml der Synaptosomen-Suspension wurden mit markiertem Noradrenalin bei 37 ° C inkubiert in Gegenwart von oder ohne Testsubstanz. Die Inkubationszeit betrug 4 Minuten. Die weitere Aufnahme wurde dann durch Abkühlen mit Eis gestoppt. Um nichtspezifische Adsorptionen auszuschließen, wurden Kontrollproben bei 0 ° C unter sonst gleichen Bedingungen inkubiert.
Die aufgenommenen Noradrenalinmengen wurden mit Hilfe der Membranfiltrationstechnik mit einem Millipore Sampling Manifold mit Cellulosenitratfiltern von 25 mm Durchmesser und 0,6 Mikrometer Porengröße gemessen. Die Synaptosomen wurden unter vermindertem Druck gesammelt und die Radioaktivität in einem Packard-Tricarb-Scintillationszähler bestimmt. Die Menge an angesammeltem Noradrenalin wurde angegeben als Prozent Radioaktivität, die zur Inkubationsmischung zugesetzt wurde.
Die ICso-Werte (inhibitory concentration) der nachstehenden Tabellen geben die Konzentrationen der Testsubstanzen an, welche die Aufnahme von ^14C-Noradrenalin zu 50 % hemmen.

[2] = tested on: Tiermodelle, prädiktiv für antidepressive Wirkung beim Menschen; assay: General pharmacological testing in animal models predictive of antidepressant action in man; format: in vivo; conditions: result in words
From the text: Bei der pharmakologischen Untersuchung des (+)-Enantiomeren der Verbindung der Formel I wurden unerwartet starke Wirkungen dieser Substanz in Tiermodellen, die als prädiktiv für antidepressive Wirkung beim Menschen gelten, gefunden.
Die pharmakologischen Prüfungen wurden mit bekannten Modellen, die als prädiktiv für antidepressive Wirkung beim Menschen gelten, durchgeführt. Das sind beispielsweise: die Beeinflussung der Tetrabenazin-Ptosis bei der Maus und die Potenzierung der Yohimbin-Toxizität bei Mäusen. Als weiteres Beurteilungskriterium wurde beispielsweise die Prüfung der Auslösung von Stereotypien an Ratten herangezogen.

[3] = tested on: Tiermodelle, prädiktiv für antidepressive Wirkung beim Menschen; conditions: as named in Deutsche Patentanmeldung P 36 28 545.5; cited from earlier work
[4] = read-out: ED50, mg/kg p.o. (Vertrauensgrenzen), Methode 1, mouse, 30 min before tetrabenazine 40 mg/kg i.p., confidence limits in brackets, repeated determinations
[5] = Methode 1, mouse, p.o., 30 min before tetrabenazine 40 mg/kg i.p., confidence limits in brackets, repeated determinations, read-out: ED50, mg/kg p.o. (Vertrauensgrenzen)
[6] = Methode 1, mouse, 30 min before tetrabenazine 40 mg/kg i.p., confidence limits in brackets, repeated determinations

Compound	keine Stereotypien bis (Stereotypien)	LD50, mg/kg p.o. (Yohimbin-Toxizität)	ED50 (Tetrabenazin-Ptosis; [4])	ED50; mg/kg p.o. (Vertrauensgrenzen) (Tetrabenazin-Ptosis; [6])	other results
OC1(C(c2cccc(Cl)c2)n2ccnc2)C2CC3CC(C2)CC1C3 (stereo not drawn)	> 300 mg/kg	4,4 mg/kg	–	–	–
COc1ccc(C(n2ccnc2)C2(O)C3CC4CC(C3)CC2C4)cc1OC (stereo not drawn)	–	3,0 mg/kg	3 mg/kg	–	–
OC1(C(c2ccc3ccccc3c2)n2ccnc2)C2CC3CC(C2)CC1C3 (stereo not drawn)	–	3,2 mg/kg	3 mg/kg	–	–
OC(C(c1cccc(Cl)c1)n1ccnc1)C12CC3CC(CC(C3)C1)C2 (stereo not drawn)	> 30 mg/kg	8,5 mg/kg	–	–	ED50 (Tetrabenazin-Ptosis; [5]): 3.7 mg/kg
CC(C)(C)C(O)C(c1ccc(-c2ccccc2)cc1)n1ccnc1 (stereo not drawn)	> 30 mg/kg	5,3 mg/kg	–	–	IC50 [1]: > 1000 nM; ED50 (Tetrabenazin-Ptosis; [5]): 3 mg/kg
CCCC(C)(C)C(O)C(c1ccc(-c2ccccc2)cc1)n1ccnc1 (stereo not drawn)	keine Stereotypien	24,5 mg/kg	–	–	–
C=CCC1(C(O)C(c2cccc(Cl)c2)n2ccnc2)CCCCC1 (stereo not drawn)	–	–	3.9 mg/kg	6,1 (0,5-72,9) mg/kg	–
OC1(C(c2cccc(Cl)c2)n2ccnc2)C2CC3CC(C2)CC1C3 (single isomer, unassigned)	> 30 mg/kg	8,5 (0,5-130) mg/kg	2.9 mg/kg	2,3 (0,9-5,8) mg/kg	LD50, mg/kg p.o. (Yohimbin-Toxizität; 1080 min): 4,6 mg/kg; IC50 [1]: 120 nM
OC1(C(c2cccc(Cl)c2)n2ccnc2)C2CC3CC(C2)CC1C3 (single isomer, unassigned; (+)) [(+)-(2-Hydroxy-2-adamantyl)-1-imidazolyl-(3-chlorphenyl)-methan]	–	–	–	–	pharmakologische Wirkung [2]: geringere Wirkung
Cc1cccc(C(n2ccnc2)C2(O)C3CC4CC(C3)CC2C4)c1 (single isomer, unassigned; (+)) [Beispiel 1]	keine Stereotypien bis 100 mg/kg p.o.	2,9 (0,2 - 41,3) mg/kg	1.3 mg/kg and 1.75 mg/kg	1,2 (0,3 - 3,5) mg/kg and 1,9 (1,0 - 3,5) mg/kg and 1,4 (0,7 - 2,7) mg/kg	LD50 umgerechnet (F:O,68) auf äquimolare Menge Base (nach Beispiel 2) (Yohimbin-Toxizität; p.o., tested as hydrogentartrate, converted to equimolar amount of base, 1080 min): 2,0 (0,1 - 28,1) mg/kg
Cc1cccc(C(n2ccnc2)C2(O)C3CC4CC(C3)CC2C4)c1 (single isomer, unassigned; enantiomere) [(-)-Enantiomere der Verbindung I]	–	–	–	–	pharmakologische Wirkung [2]: pharmakologisch unwirksam
Cc1cccc(C(n2ccnc2)C2(O)C3CC4CC(C3)CC2C4)c1 (stereo not drawn) [(2-Hydroxy-2-adamantyl)-1-imidazolyl-3-tolyl-methan]	–	–	–	–	antidepressive Wirkung in prädiktiven Tiermodellen [3]: antidepressiv wirksam
Cc1cccc(C(n2ccnc2)C2(O)C3CC4CC(C3)CC2C4)c1 (stereo not drawn) [drawing 18]	> 30 mg/kg	7,1 mg/kg	1.5 mg/kg	1,7 (0,5-5,9) mg/kg	IC50 [1]: 120 nM
